Data: PMC9420947, “^131I-Caerin 1.1 and ^131I-Caerin 1.9 for the treatment of non-small-cell lung cancer” (Frontiers in Oncology, 2022)
Where two headings read alike, the source gives them in different places. No end group written: not given here.

Columns and labels:
[1] = Body weight of A549 tumor-bearing nude mice; type: in vivo, BALB/c female nude mice; conditions: intratumoral injection every other day, four injections, 8 μg peptide and/or 7.4 ×10^6 Bq, 3 days after the last injection, four mice per group
Excerpt: (§1) Specific pathogen–free (SPF) 4-6-week-old (adult) BALB/c female nude mice were purchased from Guangdong Medical Laboratory Animal Center. The animals were housed at the Animal Resource Center (First Affiliated Hospital of Guangdong Pharmaceutical University) under SPF conditions. No animal was sick or died during the study. Nude mice were sacrificed by cervical dislocation in accordance with the Animal Management Measures of the Ministry of Health of the People’s Republic of China (Document no.55, 2001). All experiments were approved and were done in accordance with the guidelines of the Animal Experiment Ethics Committee of the First Affiliated Hospital of Guangdong Pharmaceutical University (Ethics approval number: FAHGPU20160316).
(§2) A total of 100 µl of A549 cells (1×10^6 cells) suspended in PBS were inoculated subcutaneously in the axillary area of nude mice to establish a subcutaneous xenograft model. Once the tumor was 3 to 4 mm long, the nude mice were used in the following experiment. A digital caliper (Mitutoyo, Japan, CD-15APX) was used to monitor tumor size every other day. Tumor volume was calculated according to the formula: volume = width^2 × length/2.
(§3) To reduce the thyroid uptake of ^131I, all nude mice were fed 0.1% potassium iodide (Shanghai Macklin Biochemical Co., Ltd., China) for 3 days to block the thyroid before the experiment. […]

A549 cells [2] = assay: CCK-8 cell proliferation and cytotoxicity; type: cell-based, human; conditions: CCK-8, 20,000 KBq/ml, 24 hours, triplicate, mean ± SD
Procedure: A549 cells were seeded in two 96-well plates at 5×10^3 cells (100 µl) per well and cultured for 24 hours at 5% CO2 and 37°C. The ^131I-Caerin 1.1, ^131I-Caerin 1.9, and Na-^131I solutions were added to a final concentration of 2500, 5000, 10,000, or 20,000 KBq/ml. In the corresponding plates for Caerin 1.1 and Caerin 1.9, the drug concentration was 3.29, 6.95, 14.29, or 30.72 µg/ml. The experiment was done in triplicate and included three control (drug-free) groups. The cells were cultured for another 24 hours. Next, 10 µl of CCK-8 solution (DOJINDO, Japan) was added to each well, and then the cells were cultured in the dark for 4-6 hours. The absorbance at 450 nm was measured in an enzyme-linked immunosorbent assay plate reader, and GraphPad Prism v9.3.0 was used to calculate the cell survival rate.

[3] = tested on: A549 xenograft NSCLC tumors; assay: A549 subcutaneous xenograft in nude mice, tumor growth; type: in vivo, BALB/c female nude mice; conditions: intratumoral injection every other day, four injections, 8 μg peptide and/or 7.4 ×10^6 Bq, 3 days after the last injection, four mice per group
Excerpt: as §1, §2, §3

A549 cells [4] = assay: Cell uptake; type: cell-based, human; conditions: 24 hours, serum-free medium, 1.85 ×10^5Bq per well, γ count, triplicate, mean ± SD
Procedure: A549 cells were seeded in four 24-well plates (Coring, USA) at 5×10^4 cells (500 µl) per well. The experiment was done in triplicate and included a positive-control well. After the cells were cultured in an incubator for 24 hours, the supernatant was discarded, 0.5 ml of serum-free medium was added to each well, and ^131I-Caerin 1.1 or ^131I-Caerin 1.9 and Na-^131I solution (1.85 ×10^5Bq or 2 µl per well) were added. After the cells were incubated for 2, 4, 6, or 24 hours, the cells were removed from the incubator. For the positive control, the supernatant was collected in a tube. For the experimental groups, the supernatant was discarded, and the cells were washed twice with PBS. Next, 200 µl of trypsin (GIBCO, USA) was added to each well. After digestion, the cells were washed three times with PBS and then collected in a tube to measure their radioactivity count. GraphPad Prism v9.3.0 was used to calculate the drug binding rate.

A549 cells [5] = assay: Cell elution (retention); type: cell-based, human; conditions: 24 h incubation, wash, then 24 hours in serum-free medium, 1.85 ×10^5Bq per well, γ count, triplicate, mean ± SD
Procedure: A549 cells were seeded in four 24-well plates at 5×10^4 cells (500 µl) per well and cultured for 24 hours. The experiment was done in triplicate and included a positive-control well. The supernatant was discarded, 0.5 ml of serum-free medium was added to each well, and then ^131I-Caerin 1.1, ^131I-Caerin 1.9, or free ^131I was added (1.85 ×10^5Bq or 2 µl per well). After incubation for 24 hours, the supernatant was discarded, the cells were washed twice with PBS, 0.5 ml of serum-free medium was added to each well, and the cells were incubated for another 2, 4, 6, or 24 hours. For the positive control, the supernatant was collected in a tube. For the experimental groups, the supernatant was discarded, the cells were washed twice with PBS, and 200 µl of trypsin was added to each well. After digestion, the cells were washed three times with PBS and then collected in a tube to measure the radioactivity count. GraphPad Prism v9.3.0 was used to calculate the drug retention rate.

A549 cells [6] = type: cell-based, human; conditions: MTT; for survival rate of A549 cells: overnight, triplicate, mean ± SD
Procedure: The NSCLC cell line A549 was from the Stem Cell Bank of the Chinese Academy of Sciences. The medium of A549 cells contained 89% RPMI medium 1640 (GIBCO, USA), 10% heat-inactivated fetal bovine serum (Coring, USA), and 1% penicillin-streptomycin solution (GIBCO, USA). The cells were incubated in an incubator (Thermo, USA) at 37°C in 5% CO2.
A total of 500 mg of 3-(4,5-dimethylthiazol-2-yl)-2,5-diphenyl tetrazolium bromide (MTT) powder (Sigma-Aldrich, USA) was dissolved in 100 ml of PBS to a final concentration of 5 mg/ml (0.5% MTT). The solution was stored in the dark at -20°C. A549 cells in the exponential growth phase were seeded in 96-well plates (Coring, USA) at 5×10^3 cells (100 µl) per well and then incubated at 37°C in 5% CO2 for 24 hours. Different concentrations of P3, Caerin 1.1, and Caerin 1.9 were added to the 96-well plates to reach final concentrations of 1, 5, 10, 15, 20, 25, 30, and 40 μg/ml. The experiment was done in triplicate and included control wells. The cells were cultured overnight. Once the drug’s effect was visible under the microscope, 10 µl of MTT solution was added to each well, and the cells were cultured for another 4 hours. Next, the supernatant was carefully aspirated, 150 µl of dimethyl sulfoxide solution (Sigma-Aldrich, USA) was added to each well, and the 96-well plates were placed on a shaker at low speed for 10 minutes. The absorbance at 570 nm was measured in an enzyme-linked immunosorbent assay plate reader (Thermo Scientific, USA). GraphPad Prism v9.3.0 was used calculate the half-maximal inhibitory concentration (IC50) of each drug and the survival rate (%).

Compound: [131I-].[Na+] [Na-^131I, reference compound]
- body weight at the time of sacrifice [1]: 17.99 ± 0.50 g
- survival rate of A549 cells (A549 cells [2]): 71.56% ± 9.83%
- tumor volume at the time of sacrifice [3]: 186.30 ± 19.69 mm^3
- tumor weight after sacrifice [3]: 0.147 ± 0.009 g
- uptake rate by A549 cells (A549 cells [4]): 0.67 ± 0.08%
- binding rate after elution (A549 cells [5]): 4.97% ± 0.59%

Compound: GLFGVLGSIAKHVLPHVVPVIAEKL-NH2 [Caerin 1.9]
- survival rate of A549 cells (A549 cells [6]; 10 μg/ml): 74.20% ± 3.57%
- survival rate of A549 cells (A549 cells [6]; 15 μg/ml): 72.65% ± 0.76%
- survival rate of A549 cells (A549 cells [6]; 20 μg/ml): 36.43% ± 4.85%
- survival rate of A549 cells (A549 cells [6]; 25 μg/ml): 20.43% ± 1.92%
- IC50 on A549 cells (A549 cells [6]; 1-40 μg/ml, GraphPad Prism): 17.46 µg/mL
